From US20090258883A1, “1H-Indole-Pyridinecarboxamide and 1H-Indole-Piperidinecarboxamide Compounds” (LES LABORATOIRES SERVIER, priority 2005, published 2009)
Marks after values point to notes of the source that are not given here.

Assays:
[1] = molecular target: dopaminergic receptors (type D1) (Homo sapiens, UniProt P21728); assay: Affinity for receptors, displacement of labelled specific ligand: D1; format: binding
[2] = molecular target: dopaminergic receptors (type D2) (Homo sapiens, UniProt P14416); assay: Affinity for receptors, displacement of labelled specific ligand: D2; format: binding
Sequence of dopaminergic receptors (type D2) (P14416 whole entry): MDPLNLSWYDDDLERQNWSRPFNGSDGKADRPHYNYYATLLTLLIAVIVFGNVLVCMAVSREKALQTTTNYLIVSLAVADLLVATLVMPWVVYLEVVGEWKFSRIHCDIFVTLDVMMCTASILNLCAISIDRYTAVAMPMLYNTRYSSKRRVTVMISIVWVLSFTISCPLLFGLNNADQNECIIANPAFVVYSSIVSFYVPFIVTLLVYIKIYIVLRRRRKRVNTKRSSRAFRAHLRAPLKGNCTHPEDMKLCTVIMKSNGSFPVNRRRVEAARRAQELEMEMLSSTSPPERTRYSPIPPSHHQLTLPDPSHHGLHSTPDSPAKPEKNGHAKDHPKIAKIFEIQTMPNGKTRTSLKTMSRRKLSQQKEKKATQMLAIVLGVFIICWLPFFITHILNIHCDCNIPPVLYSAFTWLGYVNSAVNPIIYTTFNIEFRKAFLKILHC

[3] = molecular target: 5HT receptors (type 5HT2A) (Homo sapiens, UniProt P28223); assay: Affinity for receptors, displacement of labelled specific ligand: 5HT2A; format: binding
Sequence of 5HT receptors (type 5HT2A) (P28223 whole entry): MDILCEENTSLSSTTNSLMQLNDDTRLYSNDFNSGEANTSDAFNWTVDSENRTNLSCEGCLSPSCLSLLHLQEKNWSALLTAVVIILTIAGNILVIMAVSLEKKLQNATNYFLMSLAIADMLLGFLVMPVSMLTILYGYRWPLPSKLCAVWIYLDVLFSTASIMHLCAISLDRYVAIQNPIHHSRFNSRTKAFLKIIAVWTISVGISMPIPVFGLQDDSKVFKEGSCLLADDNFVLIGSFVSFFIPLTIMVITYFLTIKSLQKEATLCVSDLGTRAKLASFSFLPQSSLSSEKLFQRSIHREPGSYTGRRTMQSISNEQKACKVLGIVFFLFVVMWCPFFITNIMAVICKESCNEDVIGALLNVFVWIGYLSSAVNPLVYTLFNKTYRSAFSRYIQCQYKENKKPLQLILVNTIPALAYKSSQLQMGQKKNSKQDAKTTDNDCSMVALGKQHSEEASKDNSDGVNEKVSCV

[4] = Predicted metabolic stability, rat hepatic microsomes; format: in vitro ADME; settings: 10^−7 M, rat hepatic microsomes 0.33 mg of prot/ml, NADPH
Procedure: (§1) The predicted metabolic stability is tested by incubation of the compounds at a concentration of 10^−7M in the presence of mouse, rat or human hepatic microsomes (0.33 mg of prot/ml). After addition of NADPH (nicotinamide adenine dinucleotide phosphate, reduced form), samples are taken at 0, 5, 15, 30 and 60 minutes. The enzymatic reaction is stopped using methanol (V/V). The protein is precipitated by centrifugation and the supernatant is analysed by LC-MS-MS.

[5] = Predicted metabolic stability, human hepatic microsomes; format: in vitro ADME; settings: 10^−7 M, human hepatic microsomes 0.33 mg of prot/ml, NADPH
Procedure: as §1

[6] = system: sigma (σ) receptors (ligand: haloperidol); assay: Affinity for receptors, displacement of labelled specific ligand: sigma; format: binding; settings: concentration 10^−5 M
Procedure: (§2) The affinity for receptors is determined according to customary methods of relations between the specific ligand and the receptor, which may be of animal origin or a human recombinant. The affinity was determined by the method of displacement of the labelled specific ligand by the compound under test and expressed by the dissociation constant KI. The receptor affinity was accordingly studied for 28 conventional receptors.

[7] = system: tyrosine hydroxylase (TH) protein; assay: Induction of tyrosine hydroxylase (TH) in LC, SN and VTA of the mouse brain; format: in vivo, Balb/C mouse; settings: three days after single injection, relative to mean value of control group
Excerpt: A search is made among the compounds for those which are capable of bringing about an increase in the tyrosine hydroxylase (TH) protein in the locus coeruleus (LC), substantia nigra (SN) and ventral tegmental area (VTA) of the brain of the Balb/C mouse. The animals used are consanguinal male mice of the pure Balb/C strain (Charles River Laboratories) aged 6 weeks at the time of treatment.
The mice are given a single injection, by the intraperitoneal route, of the compound under test, dissolved in 0.04M HCl solution (corresponding control: 0.04M HCl), if the compound is sufficiently soluble, or in olive oil 90%/DMSO 10% (corresponding control: olive oil 90%/DMSO 10%) for compounds that are insoluble in an aqueous medium. The volume injected is 100 μl. The test groups comprise 10 animals.
Three days after the injection of each compound, all the animals are sacrificed by decapitation. The brains are removed and then frozen in an isopentane solution at −30° C. for 45 seconds and subsequently stored at −80° C.
Serial coronal sections 20 microns thick are then taken using a cryomicrotome. Each structure of interest is then sampled along the posterior-anterior axis of the brain by taking sections at 80-micron spacings in the case of the LC and at 80- or 160-micron spacings in the case of the VTA and SN. The limits of those structures are those described in the atlas of Franklin and Paxinos. The total proteins of each of those sections are transferred by direct collection of the sections to a nitrocellulose filter (Millipore). The amounts of TH present in each sample are measured by immunochemistry, fluorimetric detection and image analysis.

[8] = Predicted metabolic stability, mouse hepatic microsomes; format: in vitro ADME; settings: 10^−7 M, mouse hepatic microsomes 0.33 mg of prot/ml, NADPH
Procedure: as §1

muscarinic (M) receptors = assay: Affinity for receptors, displacement of labelled specific ligand: muscarinic; format: binding
Procedure: as §2

Sequence of dopaminergic receptors (type D1) (P21728 whole entry): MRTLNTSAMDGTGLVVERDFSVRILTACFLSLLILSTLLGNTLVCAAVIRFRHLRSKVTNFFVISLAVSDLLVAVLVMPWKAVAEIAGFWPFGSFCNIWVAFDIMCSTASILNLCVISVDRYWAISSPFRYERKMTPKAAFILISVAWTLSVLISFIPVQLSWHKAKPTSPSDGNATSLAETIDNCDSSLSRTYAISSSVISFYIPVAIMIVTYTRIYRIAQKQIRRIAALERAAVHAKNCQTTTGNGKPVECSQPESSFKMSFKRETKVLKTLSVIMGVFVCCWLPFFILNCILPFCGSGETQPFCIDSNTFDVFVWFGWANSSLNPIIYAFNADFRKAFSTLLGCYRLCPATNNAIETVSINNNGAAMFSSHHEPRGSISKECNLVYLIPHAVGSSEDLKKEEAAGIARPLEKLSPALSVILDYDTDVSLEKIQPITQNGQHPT

Q: With CN1CCN(CCN2CCC=C(C(=O)Nn3ccc4cc(Cl)ccc43)C2)CC1 [Example 47, N-(5-Chloroindol-1-yl)-1-[2-(4-methylpiperazin-1-yl)ethyl]-1,2,5,6-tetrahydropyridine-3-carboxamide] as the compound, how does the inhibition at 10 µM ([1]; concentration 10^−5 M) read?
A: < 10%

Q: What about the inhibition at 0.1 µM ([1]; concentration 10^−7 M) of the same compound?
A: < 10%

Q: What about the inhibition at 10 µM ([2]; concentration 10^−5 M) of the same compound?
A: < 10%

Q: And the inhibition at 0.1 µM ([2]; concentration 10^−7 M)?
A: < 10%

Q: And the inhibition at 10 µM ([3]; concentration 10^−5 M)?
A: 15%

Q: What about the inhibition at 0.1 µM ([3]; concentration 10^−7 M) of the same compound?
A: 10%

Q: What about the “% metabolic stability predicted using hepatic microsomes, Rat” value [4] of the same compound?
A: 87%

Q: What about the “% metabolic stability predicted using hepatic microsomes, Human” value [5] of the same compound?
A: 78%

Q: What about the “% inhibition σ” value [6] of the same compound?
A: 67%

Q: And the “amount of TH in LC section 1” value ([7]; LC section 1 (posterior-to-anterior), i.p. 20 mg/kg)?
A: 232** %

Q: What about the “amount of TH in LC section 2” value ([7]; LC section 2, i.p. 20 mg/kg) of the same compound?
A: 138* %

Q: And the “amount of TH in LC section 3” value ([7]; LC section 3, i.p. 20 mg/kg)?
A: 176** %

Q: And the “amount of TH in LC section 4” value ([7]; LC section 4, i.p. 20 mg/kg)?
A: 179** %

Q: And the “amount of TH in LC section 5” value ([7]; LC section 5, i.p. 20 mg/kg)?
A: 172** %

Q: And the “amount of TH in LC section 6” value ([7]; LC section 6, i.p. 20 mg/kg)?
A: 169** %

Q: And the “amount of TH in LC section 7” value ([7]; LC section 7, i.p. 20 mg/kg)?
A: 153** %

Q: And the “amount of TH in LC section 8” value ([7]; LC section 8, i.p. 20 mg/kg)?
A: 140** %

Q: What about the “amount of TH in LC section 9” value ([7]; LC section 9, i.p. 20 mg/kg) of the same compound?
A: 84* %

Q: What about the “amount of TH in LC section 10” value ([7]; LC section 10, i.p. 20 mg/kg) of the same compound?
A: 88%

Q: What about the “amount of TH in LC section 11” value ([7]; LC section 11, i.p. 20 mg/kg) of the same compound?
A: 127%

Q: And the “amount of TH, LC, total” value ([7]; LC total, i.p. 20 mg/kg)?
A: 147** %

Q: And the “% metabolic stability predicted using hepatic microsomes, Mouse” value [8]?
A: 53%

Q: What about the “% inhibition M” value (muscarinic (M) receptors; concentration 10^−5 M) of the same compound?
A: 10%

Q: And the “% inhibition M” value (muscarinic (M) receptors; concentration 10^−7 M)?
A: 19%
